# Experimental data reported in US20110256068A1, “CONTRAST MEDIA COMPOSITIONS” (priority 2009, published 2011).
# Test: Viscosity at 20° C. by U-tube time of fall technique
# Type: physicochemical
# Settings: 350 mgl/ml solution, 10 mM Tris, EDTA 0.1 mg/ml
# Procedure: The obtained iodine concentration was 356 mgl/ml. The viscosity was determined to 28.7 mPas at 20° C. The osmolality was determined to 295 mOsm/kg.
# a) Preparation of a 350 mgl/ml solution of IIIa containing 10 mM Tris and EDTA (0.1 mg/ml)
# (§1) To a calibrated flask with a volume of 99.655 ml was added 71.174 g IIIa (water content 2.03%), 153 mg Trizma preset crystals (pH 7.3) and 10 mg EDTA disodium dihydrate followed by 67.330 g Milli-Q water. The mixture was brought to clear solution by intermittent agitation, gentle heating and sonication.
# The clear solution with pH=6.95 was filtered through a Millipore Sterivex 0.22 um filter.
# b) Preparation of a 350 mgl/ml solution of iopamidol containing 10 mM Tris and EDTA (0.1 mg/ml)
# as §1, with “72.429” for “71.174”, “iopamidol” for “IIIa”, “1.7%), 157” for “2.03%), 153”, “66.309” for “67.330”
# The clear solution with pH=6.85 was filtered through a Millipore Sterivex 0.22 um filter.
# c) The two solutions from a) and b) were mixed in different proportions according to Table 1. After thorough mixing, the viscosity was determined at 20° C. using conventional U-tube time of fall technique.
SMILES,Viscosity at 20° C. (100% IIIa / 0% iopamidol by volume),Viscosity at 20° C. (0% IIIa / 100% iopamidol by volume)
"O=CN(CC(O)CN(C=O)c1c(I)c(C(=O)NCC(O)CO)c(I)c(C(=O)NCC(O)CO)c1I)c1c(I)c(C(=O)NCC(O)CO)c(I)c(C(=O)NCC(O)CO)c1I (centres unmarked) [IIIa, 5,5′-(2-hydroxypropane-1,3-diyl)bis(formylazanediyl)bis(N^1,N^3-bis(2,3-dihydroxypropyl)-2,4,6-triiodoisophthalamide)]",42.9 mPas,–
C[C@H](O)C(=O)Nc1c(I)c(C(=O)NC(CO)CO)c(I)c(C(=O)NC(CO)CO)c1I [iopamidol],–,15.8 mPas
